Measured values reported in patent publication US5750504A, “Antimicrobial proteins” (Zeneca Agrochemicals, priority 1996, dated 1998).

Key:
Assay type in all cases: cell-based
Verticillium albo-atrum = assay: Antifungal activity assay (microspectrophotometry); settings: strain K0937, host Lycoperisicum, inoculum Sp, period of incubation in AFP-solution 48
Experimental: (§1) Antifungal activity was measured by microspectrophotometry as previously described (Broekaert, 1990, FEMS Microbiol Lett, 69:55-60). Routinely, tests were performed with 20 μl of a (filter-sterilized) test solution and 80 μl of a suspension of fungal spores (2×10^4 spores/ml) in half strength potato dextrose broth (1/2 PDB). […] Control microcultures contained 20 μl of sterile distilled water and 80 μl of the fungal spore suspension.
(§2) Unless otherwise stated the test organism was Fusarium culmorum (strain IMI 180420) and incubation was done at 25° C. for 48 hours. Percent growth inhibition is defined as 100 times the ratio of the corrected absorbance of the control microculture minus the corrected absorbance of the test microculture over the corrected absorbance at 595 nm of the control microculture. The corrected absorbance values equal the absorbance at 595 nm of the culture measured after 48 hours minus the absorbance at 595 nm measured after 30 min.
(§3) The antifungal potency of the purified proteins was assessed on different plant pathogenic fungi, using the assay described in Example 1. Growth of fungi, collection and harvest of fungal spores and preparation of mycelial fragments were done as previously described (Broekaert et al, 1990, FEMS Microbiol Lett, 69:55-60). Serial dilutions of the antifungal proteins were applied to the fungi, either using growth medium SMF- (the synthetic growth medium of Example 1), medium SMF+ (medium SMF- supplemented with 1 mM CaCl2 and 50 mM KCl), growth medium 1/2 PDB- (half strength potato dextrose broth as in Example 1) or growth medium 1/2 PDB+ (medium 1/2 PDB- supplemented with 1 mM CaCl2 and 50 mM Kcl). The percent growth inhibition was measured by microspectrophotometry. The concentration required for 50% growth inhibition after 48 h of incubation (IC50 value) was calculated from the dose-reponse curves.
(§4) The abbreviations used are: IC50 =concentration required for 50% growth inhibition determined as described in Example 1; ND=not determined; Sp=spores; PrSp=spores pregerminated in the medium for 24 hours; MF=mycelial fragments preincubated for 48 hours in the medium prior to addition of the proteins; BHR=broad host range; SF=saprophytic fungus; SMF-=synthetic growth medium as described in Example 1; SMF+=SMF- supplemented with 1 mM CaCl2 and 50 mM KCl; 1/2PDB-=half strength potato dextrose broth as described in Example 1; 1/2PDB+=1/2PDB- supplemented with 1 mM CaCl2 and 50 mM KCl.

Mycoshpaerella fijiensis = assay: Antifungal activity assay (microspectrophotometry); settings: strain FUL549; host Musa; medium 1/2PDB+; inoculum MF; period of incubation in AFP-solution 96
Experimental: as §1, §2, §3, §4

Penicillum digitatum = assay: Antifungal activity assay (microspectrophotometry); settings: host Citrus fruit, inoculum Sp, period of incubation in AFP-solution 48
Experimental: as §1, §2, §3, §4

[1] = tested on: Cladosporium sphaerospermum; assay: Antifungal activity assay (microspectrophotometry); settings: strain K0791, SF, inoculum Sp, period of incubation in AFP-solution 48
Experimental: as §1, §2, §3, §4

Botrytis cinerea = assay: Antifungal activity assay (microspectrophotometry); settings: strain K1147, host BHR, inoculum Sp, period of incubation in AFP-solution 48
Experimental: as §1, §2, §3, §4

Fusarium culmorum = assay: Antifungal activity assay (microspectrophotometry); settings: for IC50: host Cereals, inoculum Sp, period of incubation in AFP-solution 48
Experimental: as §1, §2, §3, §4

Septoria tritici = assay: Antifungal activity assay (microspectrophotometry); settings: strain K1097, host Triticum, inoculum Sp, period of incubation in AFP-solution 48
Experimental: as §1, §2, §3, §4

Ascochyta pisi = assay: Antifungal activity assay (microspectrophotometry); settings: strain MUCL30164, host Pisum, inoculum Sp, period of incubation in AFP-solution 48
Experimental: as §1, §2, §3, §4

Trichoderma viride = assay: Antifungal activity assay (microspectrophotometry); settings: strain K1127, SF, inoculum Sp, period of incubation in AFP-solution 48
Experimental: as §1, §2, §3, §4

[2] = tested on: Bacillus subtilis JHCC 553331; assay: Antibacterial activity assay (microspectrophotometry)
Experimental: Antibacterial activity was measured microspectrophotometrically as follows. A bacterial suspension was prepared by inoculating soft nutrient agarose (tryptone, 10 g/l; Seaplaque agarose (FMC), 5 g/l). Aliquots (80 μl) of the bacterial suspension (10^5 colony forming units per ml) were added to filter-sterilized samples (20 μl) in flat-bottom 96-well microplates. The absorbance at 595 nm of the culture was measured with the aid of a microplate reader after 30 minutes and 24 hours of incubation at 28° C. Percent growth inhibition was calculated as described above for the antifungal activity assay.
The antibacterial activities of Ah-AMP1 and Hs-AFP1 were measured on four gram positive bacteria (Bacillus subtilis JHCC 553331; Micrococcus luteus ATCC 93411; Staphylococcus aureus ATCC 25923; Streptococcus feacolis ATCC 29212) and two gram negative bacteria (Eschericia coli HB101 and Proteus vulgaris JHCC 558711).

fungi = assay: Morphological effect on fungal hyphae (fungi in general)
Leptospaeria maculans = assay: Antifungal activity assay (microspectrophotometry); settings: for antifungal activity on Leptospaeria maculans (in words): in 1/2PDB+; for IC50: host Brassica
Experimental: as §1, §2
as §3, with “The concentration required for 50% growth inhibition after 48 h of incubation (IC50 value) was calculated from the dose-reponse curves.” left out
as §4

Alternaria brassicae = assay: Antifungal activity assay (microspectrophotometry); settings: for IC50: host Brassica, inoculum Sp, period of incubation in AFP-solution 66
Experimental: as §1, §2
as §3, with “The concentration required for 50% growth inhibition after 48 h of incubation (IC50 value) was calculated from the dose-reponse curves.” left out
as §4

[3] = strain LM36uea, medium 1/2PDB+, inoculum Sp, period of incubation in AFP-solution 48
[4] = strain LM36uea, medium 1/2PDB-, inoculum Sp, period of incubation in AFP-solution 48
[5] = strain SES1, medium 1/2PDB+, inoculum PrSp, period of incubation in AFP-solution 120
[6] = strain SES2, medium 1/2PDB+, inoculum PrSp, period of incubation in AFP-solution 120

Question: How did the IC50 (Verticillium albo-atrum; medium 1/2PDB+) turn out when “Ah-AMP1: Aesculus hippocastanum antimicrobial protein 1; 5 kDa polypeptide purified from seeds, 50 amino acids, SEQ ID NO 2 (LCNERPSQTWSGNCGNTAHCDKQCQDWEKASHGACHKRENHWKCFCYFNC)” was run?
Answer: > 100 µg/mL

Question: And the IC50 (Verticillium albo-atrum; medium 1/2PDB-)?
Answer: 6 µg/mL

Question: What about the IC50 (Mycoshpaerella fijiensis) of the same substance?
Answer: 0.75 µg/mL

Question: And the IC50 (Penicillum digitatum; strain K0679, medium 1/2PDB-)?
Answer: 6 µg/mL

Question: What about the IC50 (Penicillum digitatum; strain K0879, medium 1/2PDB+) of the same substance?
Answer: 25 µg/mL

Question: What about the IC50 ([1]; medium 1/2PDB+) of the same substance?
Answer: 12 µg/mL

Question: And the IC50 ([1]; medium 1/2PDB-)?
Answer: 0.5 µg/mL

Question: And the IC50 (Botrytis cinerea; medium 1/2PDB+)?
Answer: > 100 µg/mL

Question: What about the IC50 (Botrytis cinerea; medium 1/2PDB-) of the same substance?
Answer: 25 µg/mL

Question: What about the IC50 (Fusarium culmorum; strain IMI180420, medium SMF+) of the same substance?
Answer: 25 µg/mL

Question: And the IC50 (Fusarium culmorum; strain IMI180420, medium SMF-)?
Answer: 1.5 µg/mL

Question: And the IC50 (Fusarium culmorum; strain K0311, medium 1/2PDB+)?
Answer: > 100 µg/mL

Question: What about the IC50 (Fusarium culmorum; strain K0311, medium 1/2PDB-) of the same substance?
Answer: 12 µg/mL

Question: What about the IC50 (Septoria tritici; medium 1/2PDB+) of the same substance?
Answer: 1.5 µg/mL

Question: What about the IC50 (Septoria tritici; medium 1/2PDB-) of the same substance?
Answer: 0.5 µg/mL

Question: And the IC50 (Ascochyta pisi; medium SMF+)?
Answer: 15 µg/mL

Question: What about the IC50 (Ascochyta pisi; medium SMF-) of the same substance?
Answer: 0.8 µg/mL

Question: What about the IC50 (Trichoderma viride; medium 1/2PDB+) of the same substance?
Answer: > 100 µg/mL

Question: And the IC50 (Trichoderma viride; medium 1/2PDB-)?
Answer: > 100 µg/mL

Question: And the “inhibition of bacterial growth” value ([2]; at 100 μg/ml)?
Answer: inhibited growth

Question: What about the hyperbranching of fungi (fungi) of the same substance?
Answer: do not

Question: And the “interference with fungal growth processes (hyphal length)” value (fungi)?
Answer: reduction in hyphal length

Question: And the “antifungal activity on Leptospaeria maculans (in words)” value (Leptospaeria maculans)?
Answer: highly active

Question: And the IC50 (Leptospaeria maculans; [3])?
Answer: 6 µg/mL

Question: And the IC50 (Leptospaeria maculans; [4])?
Answer: 0.5 µg/mL

Question: What about the IC50 (Leptospaeria maculans; [5]) of the same substance?
Answer: < 0.75 µg/mL

Question: What about the IC50 (Leptospaeria maculans; [6]) of the same substance?
Answer: < 0.75 µg/mL

Question: What about the IC50 (Alternaria brassicae; medium SMF+) of the same substance?
Answer: 3 µg/mL

Question: And the IC50 (Alternaria brassicae; medium SMF-)?
Answer: 1.5 µg/mL

Question: And the “reduction of activity in medium SMF- versus SMF+” value (Alternaria brassicae; on Alternaria brassicae)?
Answer: two-fold

Question: Which results are given for “Hs-AFP1: Heuchera sanquinea antifungal protein 1; 5 kDa polypeptide purified from seeds, 54 amino acids, SEQ ID NO 1 (DGVKLCDVPSGTWSGHCGSSSKCSQQCKDREHFAYGGACHYQFPSVKCFCKRQC)”?
Answer: IC50 (Verticillium albo-atrum; medium 1/2PDB+): 30 µg/mL; IC50 (Verticillium albo-atrum; medium 1/2PDB-): 12 µg/mL; IC50 (Mycoshpaerella fijiensis): 12.5 µg/mL; IC50 (Penicillum digitatum; strain K0679, medium 1/2PDB-): 1 µg/mL; IC50 (Penicillum digitatum; strain K0879, medium 1/2PDB+): 3 µg/mL; IC50 ([1]; medium 1/2PDB+): 3 µg/mL; IC50 ([1]; medium 1/2PDB-): 1 µg/mL; IC50 (Botrytis cinerea; medium 1/2PDB+): 25 µg/mL; IC50 (Botrytis cinerea; medium 1/2PDB-): 6 µg/mL; antifungal activity on Fusarium culmorum (in words) (Fusarium culmorum; in 1/2PDB+): highly active; IC50 (Fusarium culmorum; strain IMI180420, medium SMF+): 1 µg/mL; IC50 (Fusarium culmorum; strain IMI180420, medium SMF-): 0.5 µg/mL; IC50 (Fusarium culmorum; strain K0311, medium 1/2PDB+): 3 µg/mL; IC50 (Fusarium culmorum; strain K0311, medium 1/2PDB-): 1 µg/mL; IC50 (Septoria tritici; medium 1/2PDB+): 3 µg/mL; IC50 (Septoria tritici; medium 1/2PDB-): 0.5 µg/mL; IC50 (Ascochyta pisi; medium SMF+): > 5 µg/mL; IC50 (Ascochyta pisi; medium SMF-): 1.5 µg/mL; IC50 (Trichoderma viride; medium 1/2PDB+): > 100 µg/mL; IC50 (Trichoderma viride; medium 1/2PDB-): 15 µg/mL; inhibition of bacterial growth ([2]; tested at 200 μg/ml): did not inhibit the growth; hyperbranching of fungi (fungi): cause hyperbranching; interference with fungal growth processes (hyphal length) (fungi): reduction in hyphal length; antifungal activity on Leptospaeria maculans (in words) (Leptospaeria maculans): is not; IC50 (Leptospaeria maculans; [3]): > 100 µg/mL; IC50 (Leptospaeria maculans; [4]): 25 µg/mL; IC50 (Leptospaeria maculans; [5]): > 100 µg/mL; IC50 (Leptospaeria maculans; [6]): > 100 µg/mL; IC50 (Alternaria brassicae; medium SMF+): 3 µg/mL; IC50 (Alternaria brassicae; medium SMF-): 1.5 µg/mL
